In US7619089B2, “Derivatives of N-heterocyclylmethylbenzamides, preparation method thereof and application of same in therapeutics” (Sanofi-Aventis, priority 2003, dated 2009):
Counter-ions that a name gives are not always drawn.

The molecules below were run against T1, native human transporter glyt1 (Homo sapiens, UniProt P48067) (assay: Transport of glycine ([14C]glycine capture) in SK-N-MC cells expressing the native human transporter glyt1). Settings: 10 μM [14C]glycine, 10 min at 37° C., pH 7.4, read-out: IC50, concentration which reduces by 50% the specific capture of glycine.
T1 construct: expressing the native human transporter glyt1; endogenous in cells; host or cells: SK-N-MC cells (human neuroepithelial cells)
T1 sequence (P48067 1-706): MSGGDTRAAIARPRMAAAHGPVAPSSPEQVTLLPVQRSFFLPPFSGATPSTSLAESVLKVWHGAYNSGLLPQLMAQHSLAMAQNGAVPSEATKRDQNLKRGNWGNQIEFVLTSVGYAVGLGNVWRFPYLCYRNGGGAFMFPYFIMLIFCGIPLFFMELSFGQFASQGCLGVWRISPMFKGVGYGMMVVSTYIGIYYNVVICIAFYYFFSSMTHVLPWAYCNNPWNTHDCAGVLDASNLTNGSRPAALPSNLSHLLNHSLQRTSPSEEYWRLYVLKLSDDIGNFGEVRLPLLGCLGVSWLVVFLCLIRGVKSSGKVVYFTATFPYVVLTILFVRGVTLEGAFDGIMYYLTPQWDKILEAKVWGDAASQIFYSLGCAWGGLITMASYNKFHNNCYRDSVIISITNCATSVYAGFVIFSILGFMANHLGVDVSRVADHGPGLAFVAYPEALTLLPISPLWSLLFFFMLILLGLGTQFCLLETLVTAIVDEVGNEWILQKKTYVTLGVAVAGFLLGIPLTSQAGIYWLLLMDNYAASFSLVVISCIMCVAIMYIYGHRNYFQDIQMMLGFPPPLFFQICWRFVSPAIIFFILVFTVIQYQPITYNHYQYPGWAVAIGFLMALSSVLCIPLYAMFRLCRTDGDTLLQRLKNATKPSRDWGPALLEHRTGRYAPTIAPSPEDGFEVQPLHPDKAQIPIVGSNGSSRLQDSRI
Type: cell-based
Method: Study of the Transport of Glycine in SK-N-MC Cells Expressing the Native Human Transporter Glyt1.
The capture of [^14C]glycine is studied in SK-N-MC cells (human neuroepithelial cells) expressing the native human transporter glyt1 by measuring the radioactivity incorporated in the presence or in the absence of the test compound. The cells are cultured in a monolayer for 48 h in plates pretreated with fibronectin at 0.02%. On the day of the experiment, the culture medium is removed and the cells are washed with a Krebs-HEPES ([4-(2-hydroxyethyl)piperazine]1-ethanesulfonic acid) buffer at pH 7.4. After a preincubation of 10 min at 37° C. in the presence either of buffer (control batch), or of test compound at various concentrations, or of 10 mM glycine (determination of the nonspecific capture), 10 μM [^14C]glycine (specific activity 112 mCi/mmol) are then added. The incubation is continued for 10 min at 37° C., and the reaction is stopped by 2 washes with a Krebs-HEPES buffer at pH 7.4. The radioactivity incorporated by the cells is then estimated after adding 100 μl of liquid scintillant and stirring for 1 h. The counting is performed on a Microbeta Tri-lux™ counter. The efficacy of the compound is determined by the IC50, the concentration of the compound which reduces by 50% the specific capture of glycine, defined by the difference in radioactivity incorporated by the control batch and the batch which received the glycine at 10 mM.

First: O=C(NC(c1ccc(F)cc1)C1CC2CCN1CC2)c1c(Cl)ccc(C(F)(F)F)c1Cl (stereo not drawn) [Compound No. 26, threo-N-[1-Azabicyclo[2.2.2]oct-2-yl(4-fluorophenyl)-methyl]-2,6-dichloro-3-(trifluoromethyl)benzamide hydrochloride 1:1]
Second: O=C(NC(c1ccccc1)C1CC2CCN1CC2)c1c(Cl)ccc(C(F)(F)F)c1Cl (stereo not drawn) [Compound No. 4, threo-2,6-Dichloro-N-[(1-azabicyclo[2.2.2]oct-2-yl)phenylmethyl]-3-trifluoromethylbenzamide hydrochloride 1:1]
The IC50 of the first is 18-fold higher: 70 nM for the first, 4 nM for the second.

Going from C=CC1CN2CCC1CC2C(NC(=O)c1cccc(C(F)(F)F)c1Cl)c1ccnc2ccccc12 [Compound No. 14, 2-Chloro-N-(8α,9S)cinchonan-9-yl)-3-trifluoromethyl-benzamide hydrochloride 2:1] to O=C(NC(c1ccccc1)C1CC2CCN1CC2)c1cccc(C(F)(F)F)c1Cl (stereo not drawn) [Compound No. 3, threo-2-Chloro-N-[(1-azabicyclo[2.2.2]oct-2-yl)phenyl-methyl]-3-trifluoromethylbenzamide hydrochloride 1:1], the IC50 falls from 70 nM to 17 nM (4.1-fold).

O=C(N[C@@H](c1ccccc1)[C@@H]1CC2CCN1CC2)c1c(Cl)ccc(C(F)(F)F)c1Cl [Compound No. 17] gave an IC50 of 1 nM.

These molecules were tested against T2, transporter glyt2 (Mus musculus, UniProt Q761V0) (assay: Transport of glycine ([14C]glycine capture) in mouse spinal cord homogenate). Settings: 10 μM [14C]glycine, 10 min at 25° C., pH 7.4, read-out: IC50, concentration reducing by 50% the specific capture of glycine.
T2 construct: from tissue; host or cells: mouse spinal cord homogenate (Iffa Crédo OF1 male mice)
T2 sequence (Q761V0 1-799): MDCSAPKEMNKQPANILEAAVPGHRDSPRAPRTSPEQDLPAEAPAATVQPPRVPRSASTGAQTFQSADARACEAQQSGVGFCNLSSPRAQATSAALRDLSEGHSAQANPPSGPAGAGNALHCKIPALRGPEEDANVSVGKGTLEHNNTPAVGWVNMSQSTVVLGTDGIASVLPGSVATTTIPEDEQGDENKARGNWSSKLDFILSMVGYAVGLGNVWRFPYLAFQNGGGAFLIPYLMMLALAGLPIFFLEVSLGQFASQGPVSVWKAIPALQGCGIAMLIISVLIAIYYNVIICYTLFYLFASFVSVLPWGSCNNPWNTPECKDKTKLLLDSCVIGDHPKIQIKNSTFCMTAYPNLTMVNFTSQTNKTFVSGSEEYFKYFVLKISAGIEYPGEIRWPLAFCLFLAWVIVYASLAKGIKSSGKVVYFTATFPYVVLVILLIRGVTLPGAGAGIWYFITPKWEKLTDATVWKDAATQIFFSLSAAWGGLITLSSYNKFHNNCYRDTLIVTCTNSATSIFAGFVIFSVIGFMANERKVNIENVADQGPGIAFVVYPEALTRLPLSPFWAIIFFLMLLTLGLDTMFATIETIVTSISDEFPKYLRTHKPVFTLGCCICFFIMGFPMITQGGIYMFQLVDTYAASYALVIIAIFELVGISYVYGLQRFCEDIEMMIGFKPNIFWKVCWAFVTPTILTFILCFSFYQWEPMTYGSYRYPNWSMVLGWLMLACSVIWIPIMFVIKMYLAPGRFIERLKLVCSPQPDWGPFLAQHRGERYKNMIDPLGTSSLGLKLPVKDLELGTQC
Type: biochemical
Description: Study of the Transport of Glycine in Mouse Spinal Cord Homogenate
The capture of [^14C]glycine by the transporter glyt2 is studied in mouse spinal cord homogenate by measuring the radioactivity incorporated in the presence or in the absence of the compound to be studied.
After the animals have been humanely killed (Iffa Crédo OF1 male mice weighing 20 to 25 g on the day of the experiment), the spinal cord of each animal is rapidly removed, weighed and stored on ice. The samples are homogenized in a Krebs-HEPES ([4-(2-hydroxyethyl)piperazine]1-ethanesulfonic acid) buffer, pH 7.4, at a rate of 25 ml/g of tissue.
50 μl of homogenate are preincubated for 10 min at 25° C. in the presence of Krebs-HEPES buffer, pH 7.4 and of compound to be studied at various concentrations, or of 10 mM glycine in order to determine the nonspecific capture. The [^14C]glycine (specific activity=112 mCi/mmol) is then added for 10 min at 25° C. at the final concentration of 10 μM. The reaction is stopped by filtration under vacuum and the radioactivity is estimated by solid scintillation by counting on a Microbeta Tri-lux™ counter.
The efficacy of the compound is determined by the concentration IC50 capable of reducing by 50% the specific capture of glycine, defined by the difference in radioactivity incorporated by the control batch and the batch which received the 10 mM glycine.

O=C(N[C@@H](c1ccccc1)[C@@H]1CC2CCN1CC2)c1c(Cl)ccc(C(F)(F)F)c1Cl [Compound No. 17] was tested, and the IC50 was 690 nM.
